Source: patent publication EP3789378A1, “PIPERIDINES OR PIPERIDONES SUBSTITUTED WITH UREA AND HETEROARYL” (Grünenthal GmbH, priority 2019, dated 2021)

molecular target: T1, h FPR2 (Homo sapiens, UniProt P25090); assay: Agonistic activity in hFPR2-Aq-CHO cells (FLIPR Calcium 5 fluorescence assay); type: cell-based; conditions: 11 point half log dilution, final assay concentration from 10µM
T1 construct: expressed in transfected cells
T1 sequence (P25090 1-351): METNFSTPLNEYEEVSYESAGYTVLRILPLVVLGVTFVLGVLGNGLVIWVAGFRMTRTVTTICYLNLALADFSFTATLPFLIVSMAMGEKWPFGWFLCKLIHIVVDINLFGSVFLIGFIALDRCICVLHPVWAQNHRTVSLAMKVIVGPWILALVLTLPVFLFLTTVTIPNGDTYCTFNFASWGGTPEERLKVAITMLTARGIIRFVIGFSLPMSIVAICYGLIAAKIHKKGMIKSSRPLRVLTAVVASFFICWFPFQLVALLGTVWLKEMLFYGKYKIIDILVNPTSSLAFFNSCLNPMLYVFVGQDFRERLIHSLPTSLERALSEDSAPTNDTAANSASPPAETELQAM
How it was run: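 hFPR2-Aq-CHO cells were loaded with Calcium 5 dye for 30 min at 37 °C and equilibrated 10 min at room temperature. Compound (11 points, 10 µM to 100 pM final) was added in HBSS/HEPES/probenecid buffer pH 7.4. Fluorescence rise over basal across 5 min, relative to no-compound wells, gave EC50.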

Structure (SMILES)	EC50 [nM]
COc1ccc([C@@H]2CN(CC3COC3)CC[C@H]2NC(=O)Nc2ccc(Cl)cc2)nc1 (relative stereo) [Ex-109, trans-1-(4-chloro-phenyl)-3-(5-methoxy-1'-oxetan-3-ylmethyl-1',2',3',4',5',6'-hexahydro-[2,3']bipyridinyl-4'-yl)-urea]	1.2
COc1ccc([C@@H]2CN(C3CCS(=O)(=O)CC3)CC[C@H]2NC(=O)Nc2ccc(Cl)cc2)nc1 (relative stereo) [Ex-110, trans-1-(4-chlorophenyl)-3-(1-(1,1-dioxidotetrahydro-2H-thiopyran-4-yl)-3-(5-methoxypyridin-2-yl)piperidin-4-yl)urea]	49
COc1ccc([C@@H]2CN(CCCN(C)C)CC[C@H]2NC(=O)Nc2ccc(Cl)cc2)nc1 (relative stereo) [Ex-111, trans-1-(4-chloro-phenyl)-3-[1'-(3-dimethylaminopropyl)-5-methoxy-1',2',3',4',5',6'-hexahydro-[2,3']bipyridinyl-4'-yl]-urea]	0.2
COc1ccc([C@@H]2CNCC[C@H]2NC(=O)Nc2ccc(Cl)cc2)nc1 (relative stereo) [Ex-112, trans-1-(4-chlorophenyl)-3-[3-(5-methoxypyridin-2-yl)piperidin-4-yl]urea]	1.2
COc1ccc([C@@H]2CN(CC3CCC(O)CC3)CC[C@H]2NC(=O)Nc2ccc(Cl)cc2)nc1 (relative stereo) [Ex-114, trans-1-(4-chloro-phenyl)-3-[1'-(4-hydroxy-cyclohexylmethyl)-5-methoxy-1',2',3',4',5',6'-hexahydro-[2,3']bipyridinyl-4'-yl]-urea]	0.6
COc1ccc([C@@H]2CN(CC3CCC(OC)CC3)CC[C@H]2NC(=O)Nc2ccc(Cl)cc2)nc1 (relative stereo) [Ex-115, trans-1-(4-chloro-phenyl)-3-[5-methoxy-1'-(4-methoxy-cyclohexylmethyl)-1',2',3',4',5',6'-hexahydro-[2,3']bipyridinyl-4'-yl]-urea]	0.5
COC1CCC(CN2CC[C@@H](NC(=O)Nc3ccc(Cl)cc3)[C@H](c3ccc(Cl)s3)C2)CC1 (relative stereo) [Ex-116, trans-1-(4-chloro-phenyl)-3-[3-(5-chloro-thiophen-2-yl)-1-(4-methoxy-cyclohexylmethyl)-piperidin-4-yl]-urea]	9
CNCCN1CC[C@@H](NC(=O)Nc2ccc(Cl)cc2)[C@H](c2ccc(OC)cn2)C1 (relative stereo) [Ex-117, trans-1-(4-Chlorophenyl)-3-[3-(5-methoxy-pyridin-2-yl)-1-(2-methylamino-ethyl)-piperidin-4-yl]-urea]	3
COc1ccc([C@@H]2CN(C(=O)CN(C)C)CC[C@H]2NC(=O)Nc2cc(C)ns2)nc1 (relative stereo) [Ex-118, trans-1-[1-(2-Dimethylamino-acetyl)-3-(5-methoxy-pyridin-2-yl)-piperidin-4-yl]-3-(3-methyl-isothiazol-5-yl)-urea]	5
COc1ccc([C@@H]2CN(C(=O)C3COC3)CC[C@H]2NC(=O)Nc2cc(C)ns2)nc1 (relative stereo) [Ex-119, trans-1-[3-(5-Methoxy-pyridin-2-yl)-1-(oxetane-3-carbonyl)-piperidin-4-yl]-3-(3-methyl-isothiazol-5-yl)-urea]	9
COc1ccc([C@@H]2CN(CC(C)(C)O)CC[C@H]2NC(=O)Nc2ccc(Cl)cc2)nc1 (relative stereo) [Ex-120, trans-1-(4-Chlorophenyl)-3-[1-(2-hydroxy-2-methyl-propyl)-3-(5-methoxy-pyridin-2-yl)-piperidin-4-yl]-urea]	0.7
COc1ccc([C@@H]2CN(CC(C)(C)O)CC[C@H]2NC(=O)Nc2cc(C)ns2)nc1 (relative stereo) [Ex-121, trans-1-[1-(2-Hydroxy-2-methyl-propyl)-3-(5-methoxy-pyridin-2-yl)-piperidin-4-yl]-3-(3-methyl-isothiazol-5-yl)-urea]	1.2
